The test concerns the target T1, BLT2 (Homo sapiens, UniProt Q9NPC1).
T1 sequence (Q9NPC1 1-358): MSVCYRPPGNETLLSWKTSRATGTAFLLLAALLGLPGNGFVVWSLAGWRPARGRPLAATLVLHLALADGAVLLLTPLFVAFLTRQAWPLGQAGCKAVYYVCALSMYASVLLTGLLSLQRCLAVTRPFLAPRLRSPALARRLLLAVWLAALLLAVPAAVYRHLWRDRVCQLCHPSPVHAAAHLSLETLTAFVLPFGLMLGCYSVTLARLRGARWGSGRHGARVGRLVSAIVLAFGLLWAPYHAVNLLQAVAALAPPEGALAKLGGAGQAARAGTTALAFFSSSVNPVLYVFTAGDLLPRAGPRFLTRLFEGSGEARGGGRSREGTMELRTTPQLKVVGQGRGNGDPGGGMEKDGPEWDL
The test can be described thus: Evaluation of BLT2 agonistic activity by monitoring the variation of intracellular Ca2+ concentration. The test is classed as cell-based. Set-up: expressed in transfected cells. The conditions noted are these: classification of the compounds (1) to (46).

For the compound `CCCCN(Cc1ccc(-c2ccccc2-c2nnn[nH]2)cc1)C(=O)NCCc1ccccc1` [(5), N-butyl-N′-(2-phenylethyl)-N-{[2′-(1H-tetrazol-5-yl)biphenyl-4-yl]methyl}urea], the BLT2 agonistic activity result was “BLT2 agonistic activity”.
The result for `CCCCN(Cc1ccc(-c2ccccc2-c2nnn[nH]2)cc1)C(=O)NC(C)C` [(7), N-butyl-N′-isopropyl-N-{[2′-(1H-tetrazol-5-yl)biphenyl-4-yl]methyl}urea] reads “BLT2 agonistic activity”; that for `CCCCN(Cc1ccc(-c2ccccc2-c2nnn[nH]2)cc1)C(=O)NCCc1ccc(O)cc1` [(9), N-butyl-N′-[2-(4-hydroxyphenyl)ethyl]-N-{[2′-(1H-tetrazol-5-yl)biphenyl-4-yl]methyl}urea], “BLT2 agonistic activity”.
The result for `CCCCN(Cc1ccc(-c2ccccc2-c2nnn[nH]2)cc1)C(=S)NCC(=O)OC` [(10), methyl N-[(butyl {[2′-(1H-tetrazol-5-yl)biphenyl-4-yl]methyl}amino)carbonothioyl]glycinate] reads “BLT2 agonistic activity”.
Regarding `CCCCNC(=O)N(CCCC)Cc1ccc(-c2ccccc2-c2nnn[nH]2)cc1` [(11), N,N′-dibutyl-N-{[2′-(1H-tetrazol-5-yl)biphenyl-4-yl]methyl}urea], the BLT2 agonistic activity result is recorded as “BLT2 agonistic activity”.
The same measure for `CCCCN(Cc1ccc(-c2ccccc2-c2nnn[nH]2)cc1)C(=O)NC1CCCCC1` [(12), N-butyl-N′-cyclohexyl-N-{[2′-(1H-tetrazol-5-yl)biphenyl-4-yl]methyl}urea]: “BLT2 agonistic activity”; for `CCCCN(Cc1ccc(-c2ccccc2-c2nnn[nH]2)cc1)C(=O)Nc1ccccc1` [(13), N-butyl-N′-phenyl-N-{[2′-(1H-tetrazol-5-yl)biphenyl-4-yl]methyl}urea]: “BLT2 agonistic activity”.
The result for `CCCCN(Cc1ccc(-c2ccccc2-c2nnn[nH]2)cc1)C(=O)Nc1cccc(OC)c1` [(16), N-butyl-N′-(3-methoxyphenyl)-N-{[2′-(1H-tetrazol-5-yl)biphenyl-4-yl]methyl}urea] reads “BLT2 agonistic activity”; that for `CCCCN(Cc1ccc(-c2ccccc2-c2nnn[nH]2)cc1)C(=O)Nc1ccc(OC)cc1` [(17), N-butyl-N′-(4-methoxyphenyl)-N-{[2′-(1H-tetrazol-5-yl)biphenyl-4-yl]methyl}urea], “BLT2 agonistic activity”; that for `CCCCN(Cc1ccc(-c2ccccc2-c2nnn[nH]2)cc1)C(=O)Nc1cccc(C(=O)OCC)c1` [(19)], “BLT2 agonistic activity”.
The same measure for `CCCCN(Cc1ccc(-c2ccccc2-c2nnn[nH]2)cc1)C(=O)Nc1ccc(C)cc1` [(20), N-butyl-N′-(4-methylphenyl)-N-{[2′-(1H-tetrazol-5-yl)biphenyl-4-yl]methyl}urea]: “BLT2 agonistic activity”.
For the compound `CCCCN(Cc1ccc(-c2ccccc2-c2nnn[nH]2)cc1)C(=O)N[C@@H](C)c1ccccc1` [(21), N-butyl-N′-[(1S)-1-phenylethyl]-N-{[2′-(1H-tetrazol-5-yl)biphenyl-4-yl]methyl}urea], the BLT2 agonistic activity result is listed as “BLT2 agonistic activity”.
In the case of `CCCCN(Cc1ccc(-c2ccccc2-c2nnn[nH]2)cc1)C(=O)NCc1ccccc1` [(22), N′-benzyl-N-butyl-N-{[2′-(1H-tetrazol-5-yl)biphenyl-4-yl]methyl}urea], the BLT2 agonistic activity entry is given as “BLT2 agonistic activity”.
The result for `CCCCN(Cc1ccc(-c2ccccc2-c2nnn[nH]2)cc1)C(=O)Nc1ccc(F)c(F)c1` [(30), N-butyl-N′-(3,4-difluorophenyl)-N-{[2′-(1H-tetrazol-5-yl)biphenyl-4-yl]methyl}urea] reads “BLT2 agonistic activity”; that for `CCCCN(Cc1ccc(-c2ccccc2-c2nnn[nH]2)cc1)C(=O)NC(=O)OCC` [(34), ethyl[(butyl{[2′-(1H-tetrazol-5-yl)biphenyl-4-yl]methyl}amino)carbonyl]carbamate], “BLT2 agonistic activity”.
Consider `CCCCN(Cc1ccc(-c2ccccc2-c2nnn[nH]2)cc1)C(=O)Nc1ccccc1O` [(39), N-butyl-N′-(2-hydroxyphenyl)-N-{[2′-(1H-tetrazol-5-yl)biphenyl-4-yl]methyl}urea], for which the BLT2 agonistic activity result was “BLT2 agonistic activity”.
Take `CCCCN(Cc1ccc(-c2ccccc2-c2nnn[nH]2)cc1)C(=O)Nc1sc2c(c1C(=O)O)CCCC2` [(40), 2-{[(butyl{[2′-(1H-tetrazol-5-yl)biphenyl-4-yl]methyl}amino)carbonyl]amino}-4,5,6,7-tetrahydro-1-benzothiophen-3-carboxylic acid]: the BLT2 agonistic activity result is reported as “BLT2 agonistic activity”.
The same measure for `CCCCN(Cc1ccc(-c2ccccc2-c2nnn[nH]2)cc1)C(=O)NCC1CCCO1` (stereo not shown) [(43), N-butyl-N′-(tetrahydrofuran-2-ylmethyl)-N-{[2′-(1H-tetrazol-5-yl)biphenyl-4-yl]methyl}urea]: “BLT2 agonistic activity”.
The result for `CCCCN(Cc1ccc(-c2ccccc2-c2nnn[nH]2)cc1)C(=O)NCCN1CCOCC1` [(45), N-butyl-N′-(2-morpholin-4-ylethyl)-N-{[2′-(1H-tetrazol-5-yl)biphenyl-4-yl]methyl}urea] reads “BLT2 agonistic activity”.

Source of the values: US8673889B2, “BLT2-mediated disease, BLT2 binding agent and the compound” (Ono Pharmaceutical Co., Ltd., priority 2004, dated 2014).
